From PubChem BioAssay AID330 (DTP/NCI, 2004)
Where “and” joins values, the source holds several entries; their conditions need not be identical. Identical values can stand only once. Inconclusive results and toxic doses are left out. How the source made its calls: active means survival T/C of 150% or more; inactive means T/C below 125% in these data. Peptide text beside a SMILES is read from it. * marks the point of attachment. Cbz = O=C(OCc1ccccc1)*

Tested on: P388 leukemia ip, CD2F1 mice, survival T/C
Assay: NCI In Vivo Anticancer Drug Screen. Data for tumor model P388 Leukemia (intraperitoneal) in CD2F1 (CDF1) mice
Settings: endpoint: median survival time, higher = longer survival
Outline: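 Mice carrying the transplanted tumor received test compound or vehicle. Survival was recorded in each group, and the value is the treated-group measurement divided by that of the vehicle-treated control group.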

[1] = dose: 50.0 mg/kg/injection, schedule: Q01DX009 (ip), vehicle: suspension in saline
[2] = dose: 100.0 mg/kg/injection, schedule: Q01DX009 (ip), vehicle: suspension in saline
[3] = dose: 200.0 mg/kg/injection, schedule: Q01DX009 (ip), vehicle: suspension in saline
[4] = dose: 100.0 mg/kg/injection, schedule: Q01DX009 (ip), vehicle: saline
[5] = dose: 15.0 mg/kg/injection, schedule: Q01DX005 (ip), vehicle: saline with Tween-80
[6] = dose: 50.0 mg/kg/injection, schedule: Q01DX005 (ip), vehicle: saline with Tween-80
[7] = dose: 100.0 mg/kg/injection, schedule: Q01DX005 (ip), vehicle: saline with Tween-80
[8] = dose: 200.0 mg/kg/injection, schedule: Q01DX005 (ip), vehicle: saline with Tween-80
[9] = dose: 50.0 mg/kg/injection, schedule: Q01DX005 (ip), vehicle: Klucel (hydroxypropylcellulose) (HPC)
[10] = dose: 100.0 mg/kg/injection, schedule: Q01DX005 (ip), vehicle: Klucel (hydroxypropylcellulose) (HPC)
[11] = dose: 200.0 mg/kg/injection, schedule: Q01DX005 (ip), vehicle: Klucel (hydroxypropylcellulose) (HPC)

Measured: T/C

[NH-]CC([NH-])=O.[NH-]CC([NH-])=O.[Ni]
inactive: dose: 1.0 mg/kg/injection, schedule: Q01DX009 (ip), vehicle: saline 100 % of control | dose: 2.0 mg/kg/injection, schedule: Q01DX009 (ip), vehicle: saline 95 % of control | dose: 4.0 mg/kg/injection, schedule: Q01DX009 (ip), vehicle: saline 100 % of control | dose: 8.0 mg/kg/injection, schedule: Q01DX009 (ip), vehicle: saline 100 % of control

C(=N\Nc1nn[nH]n1)/c1ccccc1
inactive: [1] 98 % of control | [2] 97 % of control | [3] 104 % of control

O=C(Nc1ccc(-c2c[nH]c(=O)c([N+](=O)[O-])c2)cc1)OCc1ccccc1
inactive: dose: 6.25 mg/kg/injection, schedule: Q01DX009 (ip), vehicle: saline with Tween-80 95 % of control | dose: 12.5 mg/kg/injection, schedule: Q01DX009 (ip), vehicle: saline with Tween-80 95 % of control

Oc1ccc(O)c(Cl)c1Cl
inactive: dose: 12.5 mg/kg/injection, schedule: Q01DX009 (ip), vehicle: saline 105 % of control | dose: 25.0 mg/kg/injection, schedule: Q01DX009 (ip), vehicle: saline 98 % of control | dose: 25.0 mg/kg/injection, schedule: Q04DX003 (ip), vehicle: saline 106 % of control and 113 % of control | dose: 50.0 mg/kg/injection, schedule: Q01DX009 (ip), vehicle: saline 96 % of control | dose: 50.0 mg/kg/injection, schedule: Q04DX003 (ip), vehicle: saline 100 % of control and 120 % of control | [4] 104 % of control | dose: 100.0 mg/kg/injection, schedule: Q04DX002 (ip), vehicle: saline + alcohol 108 % of control | dose: 100.0 mg/kg/injection, schedule: Q04DX003 (ip), vehicle: saline 101 % of control and 118 % of control | dose: 200.0 mg/kg/injection, schedule: Q04DX002 (ip), vehicle: saline + alcohol 108 % of control | dose: 200.0 mg/kg/injection, schedule: Q04DX003 (ip), vehicle: saline 105 % of control | dose: 400.0 mg/kg/injection, schedule: Q04DX002 (ip), vehicle: saline + alcohol 99 % of control

CC(CN(C)C)C(=O)/C=C/c1ccc(Cl)c(Cl)c1 (centres undefined)
inactive: [5] 122 % of control | dose: 30.0 mg/kg/injection, schedule: Q01DX005 (ip), vehicle: saline with Tween-80 116 % of control | dose: 60.0 mg/kg/injection, schedule: Q01DX005 (ip), vehicle: saline with Tween-80 111 % of control and 117 % of control

CCCC[N+]1(C)CCC(OC(=O)C(O)(c2ccccc2)C2CCCC2)C1 (centres undefined)
inactive: dose: 12.5 mg/kg/injection, schedule: Q01DX009 (ip), vehicle: Klucel (hydroxypropylcellulose) (HPC) 95 % of control | dose: 25.0 mg/kg/injection, schedule: Q01DX009 (ip), vehicle: Klucel (hydroxypropylcellulose) (HPC) 90 % of control | dose: 50.0 mg/kg/injection, schedule: Q01DX009 (ip), vehicle: Klucel (hydroxypropylcellulose) (HPC) 98 % of control and 89 % of control

COc1cc(-c2ccc(N=Nc3ccc(N)nc3N)c(OC)c2)ccc1N=Nc1ccc(N)nc1N
inactive: [6] 101 % of control | [7] 104 % of control | [8] 90 % of control

COc1ccc2c(c1OC)C(O)(Cc1ccccc1)OC2C1c2c(cc3c(c2OC)OCO3)CCN1C (centres undefined)
inactive: [9] 106 % of control | [10] 104 % of control | [11] 95 % of control

COc1ccc2cc3c[n+](C)ccc3cc2c1OC
inactive: dose: 12.5 mg/kg/injection, schedule: Q01DX009 (ip), vehicle: water 118 % of control | dose: 25.0 mg/kg/injection, schedule: Q01DX009 (ip), vehicle: water 112 % of control

CN(C)CCC=C1c2ccccc2C=Cc2ccccc21
inactive: dose: 12.5 mg/kg/injection, schedule: Q01DX005 (ip), vehicle: saline 103 % of control | dose: 25.0 mg/kg/injection, schedule: Q01DX005 (ip), vehicle: saline 95 % of control | dose: 50.0 mg/kg/injection, schedule: Q01DX005 (ip), vehicle: saline 112 % of control

Clc1cccc2nc(-c3ccccn3)n(CCc3ccncc3)c12
inactive: dose: 25.0 mg/kg/injection, schedule: Q01DX005 (ip), vehicle: Klucel (hydroxypropylcellulose) (HPC) 95 % of control | [9] 95 % of control | [10] 95 % of control | [11] 93 % of control

Cc1nc(N)nc(N)c1CCCc1ccccc1
inactive: dose: 3.12 mg/kg/injection, schedule: Q01DX001 (ip), vehicle: Klucel (hydroxypropylcellulose) (HPC) 107 % of control | dose: 6.25 mg/kg/injection, schedule: Q01DX001 (ip), vehicle: Klucel (hydroxypropylcellulose) (HPC) 101 % of control | dose: 12.5 mg/kg/injection, schedule: Q01DX001 (ip), vehicle: Klucel (hydroxypropylcellulose) (HPC) 105 % of control | dose: 12.5 mg/kg/injection, schedule: Q01DX001 (ip), vehicle: saline 100 % of control

C=C(C)C1C2CC3(C)C4(CO4)C4OC4C3(O)C1C(=O)O2 (centres undefined)
inactive: dose: 0.31 mg/kg/injection, schedule: Q01DX005 (ip), vehicle: Klucel (hydroxypropylcellulose) (HPC) 97 % of control | dose: 0.62 mg/kg/injection, schedule: Q01DX005 (ip), vehicle: Klucel (hydroxypropylcellulose) (HPC) 100 % of control | dose: 1.25 mg/kg/injection, schedule: Q01DX005 (ip), vehicle: Klucel (hydroxypropylcellulose) (HPC) 102 % of control

CC(Br)C(=O)Nc1ncc([N+](=O)[O-])s1 (centres undefined)
inactive: [4] 95 % of control | dose: 200.0 mg/kg/injection, schedule: Q01DX009 (ip), vehicle: saline 100 % of control

O=C1C(c2ccccn2)=C(O)c2ccccc21
inactive: [9] 104 % of control | [10] 93 % of control | [11] 97 % of control

COc1ccc(CN2CC(C)N(N=Cc3c4c(O)c5c(O)c(C)c6c(c5c3O)C(=O)C(C)(O/C=C/C(OC)C(C)C(OC(C)=O)C(C)C(O)C(C)C(O)C(C)/C=C/C=C(\C)C(=O)N4)O6)C(C)C2)cc1 (centres undefined)
inactive: dose: 25.0 mg/kg/injection, schedule: Q01DX009 (ip), vehicle: saline with Tween-80 110 % of control | dose: 50.0 mg/kg/injection, schedule: Q01DX009 (ip), vehicle: saline with Tween-80 103 % of control and 116 % of control | [1] 112 % of control | dose: 100.0 mg/kg/injection, schedule: Q01DX009 (ip), vehicle: saline with Tween-80 113 % of control and 119 % of control | [2] 108 % of control | dose: 200.0 mg/kg/injection, schedule: Q01DX009 (ip), vehicle: saline with Tween-80 119 % of control | [3] 91 % of control

CC(NC(=O)OCc1ccccc1)C(=O)NC(CCCN=C(N)N)C(=O)O (stereo not drawn) (Cbz-Ala-Arg-OH; configuration not given here)
inactive: [6] 100 % of control | [7] 105 % of control | [8] 108 % of control

N#CC(=O)Nc1ccc(F)cc1
inactive: dose: 3.75 mg/kg/injection, schedule: Q01DX005 (ip), vehicle: saline with Tween-80 102 % of control | dose: 7.5 mg/kg/injection, schedule: Q01DX005 (ip), vehicle: saline with Tween-80 94 % of control | [5] 100 % of control and 107 % of control

COc1ccc(C(O)(C2CC2)C2CC2)cc1
inactive: dose: 100.0 mg/kg/injection, schedule: Q01DX001 (ip), vehicle: Klucel (hydroxypropylcellulose) (HPC) 98 % of control | dose: 200.0 mg/kg/injection, schedule: Q01DX001 (ip), vehicle: Klucel (hydroxypropylcellulose) (HPC) 94 % of control | dose: 400.0 mg/kg/injection, schedule: Q01DX001 (ip), vehicle: Klucel (hydroxypropylcellulose) (HPC) 98 % of control
